The values below come from article PMC6356680, “Clerodane Diterpenes from the Marine Sponge Raspailia bouryesnaultae Collected in South Brazil” (Marine Drugs, 2019).

Where two headings read alike, the source gives them in different places. A value given as a limit tells only on which side of the number the result lay.

A short description of data set [1]: in vitro. Conditions: African green monkey (Vero) and human (A549), Vero cells (CC50) and A549 cells (IC50); CC50 Vero / IC50 A549; read-out: SI (selective index = CC50/IC50). In kind it is cell-based. The procedure: (§1) Non-small cells of human lung cancer cells (A549; ATCC: CCL 195) and African Green monkey kidney fibroblasts (Vero; ATCC: CCL81) were grown in Eagle’s minimum essential medium (MEM; Cultilab, Campinas, Brazil) supplemented with 1% glutamine (Gibco, Carlsbad, CA, USA) and 10% fetal bovine serum (FBS; Gibco, Carlsbad, CA, USA), and maintained at 37 °C and 5% CO2 in a humidified atmosphere. The antiproliferative screening was performed by sulforhodamine B assay (SRB). In summary, A549 cells were seeded into 96-well plates (2.5 × 10^4 cells per well) and exposed to different concentrations of compounds 1–6 for 48 h. Paclitaxel (PAC, Sigma-Aldrich, St. Louis, MO, USA) was used as a positive control. After incubation, 10% trichloroacetic acid (TCA) was added to each well to fix the cells, and then the cells were washed and stained with SRB. […] The ratio between CC50 and IC50 values was calculated to obtain the selectivity index (SI) of each sample.

For data set [2], the system named is non-small cells of human lung cancer (A549). The experiment in a line: cells. In kind it is cell-based. The conditions noted are these: 48 h of treatment, sulforhodamine B assay, mean of three independent experiments, read-out: IC50 A549 Cell Line (Confidence Interval 95%). The procedure:
as §1

Data set [3] is described as follows: in vitro. The conditions noted are these: African green monkey. Type of data set: cell-based. The procedure:
as §1
(§2) Firstly, the cytotoxicity of compounds 1–6 was determined by SRB assay as described above. HSV-1 (KOS and 29R strains, which are sensitive and resistant to acyclovir, respectively, Faculty of Pharmacy, University of Rennes I, Rennes, France) were propagated in the permissive Vero cells. Viral stocks were titrated as based on plaque-forming units (PFU), counted by plaque assay as previously described, and stored at −80 °C until used. To perform the anti-HSV-1 screening, the viral plaque number reduction assay was used as described previously by Boff et al.. Briefly, confluent Vero cell monolayers (2.5 × 10^5 cells per well) were infected with approximately 100 PFU of each virus strain for 1 h at 37 °C. Treatments were performed by adding non-cytotoxic concentrations of the compounds after viral infection (post-infection treatment). Cells were then washed with phosphate-buffered saline (PBS) and overlaid with MEM containing 1.5% carboxymethylcellulose (CMC; Sigma-Aldrich) in the presence or absence of different concentrations of the compounds and incubated for 48 h. Cells were fixed and stained with naphthol blue-black (Sigma-Aldrich), and viral plaques were counted by using a stereomicroscope. The results were presented as percentages of viral inhibition or by IC50 values, which are defined as the concentration of each sample that inhibited viral plaque formation by 50% (IC50) when compared to untreated controls. The ratio between CC50 and IC50 values was calculated to obtain the selectivity index (SI) of each sample. Acyclovir (ACV, Sigma-Aldrich) was used as a positive control for HSV-1 (KOS strain) and as a negative control for HSV-1 (29-R strain) replication.

In another data set the test system is Vero cell line. The experiment in a line: in vitro. The conditions noted are these: African green monkey, 48 h. In kind it is cell-based. The procedure: as §1, §2
The next data set relates to HSV-1 (KOS strain). The experiment in a line: Viral plaque number reduction assay, HSV-1 KOS strain. In kind it is cell-based, Herpes Simplex Virus type 1. The conditions noted are these: for IC50: read-out: IC50 (KOS Strain). The procedure: as §2
The test system of a further data set is HSV-1 (29R strain). The experiment in a line: Viral plaque number reduction assay, HSV-1 29R strain. In kind it is cell-based, Herpes Simplex Virus type 1. The conditions noted are these: for inhibition at 100 µg/mL: tested concentration 100 µg/mL. The procedure:
as §2

[4] abbreviates: Human alphaherpesvirus 1, 48 h, acyclovir-resistant strain, read-out: % HSV-1 Inhibition ± SD, 29R Strain.
[5] abbreviates: Human alphaherpesvirus 1, 48 h, tested concentration 100 µg/mL, 48 h, post-infection treatment, read-out: % HSV-1 Inhibition ± SD, KOS Strain.

As a reminder, the IC50 is the midpoint of a concentration-inhibition curve. Broadly, the CC50 is the concentration giving 50% cytotoxicity. For the compound `C=C1C(C)=CCC[C@@H]1[C@@](C)(CCc1ccoc1)[C@@H](C)CC(=O)OC` [Compound 2, raspadiene], the selectivity ratio at 48 h in “in vitro [1]” is over 2.49. In addition, the IC50 in data set [2] (Homo sapiens, A549, 48 h) is 100 µM; with HSV-1 (KOS strain) (Human alphaherpesvirus 1, 48 h), 81.4 ± 9.82 µM; in the data set with HSV-1 (29R strain) (Human alphaherpesvirus 1, 48 h, concentration ± SD that inhibited 50% of viral replication, unit inferred), 74.9 ± 7.3 µM. The same compound returned a CC50 at 48 h in the data set “in vitro [3]” of over 250 µM. In addition, the cytotoxic concentration (CC50) in the data set with Vero cell line is over 250 µM. In addition, the inhibition at 100 µg/mL in the data set with HSV-1 (KOS strain) (Human alphaherpesvirus 1, 48 h, read-out: % HSV-1 Inhibition ± SD, KOS Strain, tested concentration 100 µg/mL, 48 h, post-infection treatment) is 83%; in the data set on HSV-1 (29R strain) (setting [4]), 74%. Further, in the data set with HSV-1 (KOS strain) (tested concentration 100 µg/mL, 48 h, post-infection treatment), the “% HSV-1 Inhibition ± SD, KOS Strain” value came to 83.41 ± 16.12%.
Turning to `CC1=CCC[C@@H]2[C@@](C)(CCc3ccoc3)[C@@H](C)C[C@@H](O)[C@]12C` [Compound 6, 6-hydroxyannonene], the selectivity ratio at 48 h in “in vitro [1]” came out at 1.66. Besides, the half-maximal inhibitory concentration (IC50) was 24.5 µM in data set [2] and under 25 µM in data set [2] (Homo sapiens, A549, 48 h). In the data set “in vitro [3]”, this compound gave a cytotoxic concentration (CC50) at 48 h of 40.8 µM. Moreover, the inhibition at 25 µg/mL turned out to be 0% in the data set with HSV-1 (KOS strain) (Human alphaherpesvirus 1, 48 h, tested concentration 25 µg/mL, 48 h, post-infection treatment, read-out: % HSV-1 Inhibition ± SD, KOS Strain) and 0% in the data set with HSV-1 (29R strain) (Human alphaherpesvirus 1, 48 h, tested concentration 25 µg/mL, acyclovir-resistant strain, read-out: % HSV-1 Inhibition ± SD, 29R Strain).
Take `C[C@H]1C[C@@H](O)[C@]23C(=CCC[C@@H]2[C@@]1(C)CCc1ccoc1)CO[C@H]3O` [Compound 1, raspailol]: in the data set “in vitro [1]”, the selectivity ratio at 48 h is 6.14. The IC50 in data set [2] was 24.1 µM; in data set [2] (Homo sapiens, A549, 48 h), under 25 µM. The same compound registered a CC50 at 48 h in the data set “in vitro [3]” of 148 µM. The inhibition at 100 µg/mL in the data set with HSV-1 (KOS strain) (setting [5]) was 34.6 ± 7.36%; in the data set on HSV-1 (29R strain) (setting [4]), 0%.
As to `COC(=O)[C@@]12C(C)=CCC[C@@H]1[C@@](C)(CCc1ccoc1)[C@@H](C)C[C@H]2O` [Compound 4, kerlinic acid methyl ester], in “in vitro [1]”, the selectivity ratio at 48 h came out at 4.77. Moreover, the IC50 was 20.6 µM in data set [2]; under 25 µM in data set [2] (Homo sapiens, A549, 48 h); 52.4 ± 4.78 µM in the data set with HSV-1 (KOS strain) (Human alphaherpesvirus 1, 48 h). The compound also registered a CC50 at 48 h in “in vitro [3]” of 98.4 µM. Further, the inhibition at 50 µg/mL with HSV-1 (KOS strain) (Human alphaherpesvirus 1, 48 h, tested concentration 50 µg/mL, 48 h, post-infection treatment, read-out: % HSV-1 Inhibition ± SD, KOS Strain) was 50%; in the data set with HSV-1 (29R strain) (Human alphaherpesvirus 1, 48 h, tested concentration 50 µg/mL, acyclovir-resistant strain, read-out: % HSV-1 Inhibition ± SD, 29R Strain), 14.4 ± 5.46%. Moreover, the “% HSV-1 Inhibition ± SD, KOS Strain” value in the data set with HSV-1 (KOS strain) (tested concentration 50 µg/mL, 48 h, post-infection treatment) amounted to 50.23 ± 8.24%.
For the compound `CC1=CCC[C@@H]2[C@@](C)(CCc3ccoc3)[C@@H](C)CC[C@]12C` [Compound 5, annonene], the selectivity ratio at 48 h in the data set “in vitro [1]” was over 1.74. In addition, the half-inhibitory concentration (IC50) in data set [2] (Homo sapiens, A549, 48 h) worked out at 144 µM. Also, the cytotoxic concentration (CC50) at 48 h in “in vitro [3]” is over 250 µM. Also, the results for the inhibition at 100 µg/mL in the data set on HSV-1 (KOS strain) (setting [5]) and in the data set on HSV-1 (29R strain) (setting [4]) were 15.2 ± 4.65% and 30.9 ± 9.07%, respectively.
As to `CC1=CCC[C@H]2C1(C(=O)O)[C@H](O)C[C@H](C)[C@]2(C)CCc1ccoc1` (stereo partly drawn) [Compound 3, kerlinic acid], the selectivity ratio at 48 h in “in vitro [1]” came to 2.74. Moreover, in data set [2] (Homo sapiens, A549, 48 h), the IC50 stood at 66.2 µM. The compound also gave a half-maximal cytotoxic concentration (CC50) at 48 h in the data set “in vitro [3]” of 182 µM. Besides, the inhibition at 100 µg/mL with HSV-1 (KOS strain) (setting [5]) is 24.4 ± 4.04%; with HSV-1 (29R strain) (setting [4]), 32 ± 6.12%.
